In ChEMBL document CHEMBL5154737, “Semisynthesis and biological evaluation of (+)-sclerotiorin derivatives as antitumor agents for the treatment of hepatocellular carcinoma” (Eur J Med Chem, 2022):
The source made the active and inactive calls. The rule behind the calls is not given here.

Key:
Bel-7402 [1] = test: Induction of apoptosis in human Bel-7402 cells assessed as dead cells at 0.625 uM incubated for 24 hrs by Annexin V and dead cell assay kit (reference value: 0.80 %); format: functional
[2] = Toxicity in BALB/c nude mouse xenografted with Bel-7402 cells assessed as behavioural change at 20 mg/kg, ip qd; format: organism-based; settings: in vivo
Bel-7402 [3] = test: Cytotoxicity against human Bel-7402 cells assessed as reduction in cell viability incubated for 72 hrs by MTT assay; format: functional, cell-based; settings: Bel-7402, 72 h
[4] = Cmax in Sprague-Dawley rat at 20 mg/kg, ip measured for 0.03 to 24 hrs by UPLC-MS analysis; format: ADME, organism-based; set-up: time lower 0.03 hrs, dose 20 mg/kg, time upper 24 hrs, route ip; settings: in vivo
Bel-7402 [5] = test: Upregulation of total protein ubiquitination level in human Bel-7402 cells by Western blot analysis; format: functional, cell-based; settings: dose <= 10.0 µM, DDE = dose-dependent effect
Bel-7402 [6] = test: Induction of apoptosis in human Bel-7402 cells assessed as early apoptotic cells at 5 uM incubated for 24 hrs by Annexin V and dead cell assay kit (reference value: 3.75 %); format: functional
Bel-7402 [7] = test: Induction of AKT degradation in human Bel-7402 cells at 2.5 uM incubated for 24 hrs in presence of Z-vad-fmk by Western blot analysis; format: cell-based
[8] = Sub-chronic toxicity in ICR mouse assessed as body weight change at 100 mg/kg/day, ip for 26 days; format: organism-based; settings: in vivo, 624 h, time 26 day
[9] = Toxicity in ICR mouse assessed as change in mean corpuscular hemoglobin level at 100 mg/kg, ip qd (reference value: 17.5 pg); format: organism-based; settings: in vivo
Bel-7402 [10] = test: Induction of apoptosis in human Bel-7402 cells assessed as late apoptotic cells at 0.313 uM incubated for 24 hrs by Annexin V and dead cell assay kit (reference value: 4.45 %); format: functional
[11] = Toxicity in ICR mouse assessed as change in plateletcrit level at 100 mg/kg, ip qd (reference value: 0.415 %); format: organism-based; settings: in vivo
Bel-7402 [12] = test: Disruption of mitochondrial membrane potential in human Bel-7402 cells incubated for 24 hrs by Rho-123 staining based flow cytometry analysis; format: functional, cell-based; settings: dose <= 5.0 µM, DDE = dose-dependent effect
Bel-7402 [13] = test: Induction of apoptosis in human Bel-7402 cells assessed as viable cells at 1.25 uM incubated for 24 hrs by Annexin V and dead cell assay kit (reference value: 91.00%); format: functional; settings: read-out: Activity
Bel-7402 [14] = test: Induction of apoptosis in human Bel-7402 cells assessed as increase in cleaved caspase-9 upto 2.5 uM incubated for 24 hrs by Western blot analysis; format: functional, cell-based
Bel-7402 [15] = test: Induction of apoptosis in human Bel-7402 cells assessed as viable cells at 0.625 uM incubated for 24 hrs by Annexin V and dead cell assay kit (reference value: 91.00%); format: functional; settings: read-out: Activity
[16] = Sub-chronic toxicity in ICR mouse assessed as behavioural change at 100 mg/kg/day, ip for 26 days; format: organism-based; settings: in vivo, 624 h, time 26 day
Bel-7402 [17] = test: Cytotoxicity against human Bel-7402 cells assessed as inhibition of cell growth incubated for 72 hrs by MTT assay; format: functional, cell-based; settings: dose 5.0 µM, DDE = dose-dependent effect
Bel-7402 [18] = test: Induction of apoptosis in human Bel-7402 cells assessed as late apoptotic cells at 5 uM incubated for 24 hrs by Annexin V and dead cell assay kit (reference value: 4.45 %); format: functional
Bel-7402 [19] = test: Induction of apoptosis in human Bel-7402 cells assessed as viable cells at 5 uM incubated for 24 hrs by Annexin V and dead cell assay kit (reference value: 91.00%); format: functional; settings: read-out: Activity
Bel-7402 [20] = test: Effect on AKT signalling pathway in human Bel-7402 cells assessed as decrease in phosphorylated-AKT level upto 2.5 uM incubated for 24 hrs by Western blot analysis; format: functional, cell-based
[21] = Toxicity in ICR mouse assessed as change in red blood cell specific volume at 100 mg/kg, ip qd (reference value: 36.1 %); format: organism-based; settings: in vivo
[22] = Acute toxicity in ICR mouse assessed as behavioural change at 100 to 500 mg/kg, ip; format: organism-based; settings: in vivo, dose 100-500 mg/kg
[23] = Toxicity in ICR mouse assessed as change in neutrophile granulocytes level at 100 mg/kg, ip qd (reference value: 0.9 10^9/L); format: organism-based; settings: in vivo
[24] = Toxicity in BALB/c nude mouse xenografted with human Bel-7402 cells assessed as behavioural change at 10 to 20 mg/kg, ip bid; format: organism-based; settings: in vivo, dose 10-20 mg/kg
Bel-7402 [25] = test: Induction of apoptosis in human Bel-7402 cells assessed as dead cells at 5 uM incubated for 24 hrs by Annexin V and dead cell assay kit (reference value: 0.80 %); format: functional
[26] = Toxicity in ICR mouse assessed as change in white blood cell count at 100 mg/kg, ip qd (reference value: 4.0 10^9/L); format: organism-based; settings: in vivo
Bel-7402 [27] = test: Induction of apoptosis in human Bel-7402 cells assessed as dead cells at 2.5 uM incubated for 24 hrs by Annexin V and dead cell assay kit (reference value: 0.80 %); format: functional
Bel-7402 [28] = test: Induction of apoptosis in human Bel-7402 cells assessed as necrotic cells at 2.5 uM incubated for 24 hrs by Annexin V and Dead cell kit assay (reference value: 1.6 %); format: functional
Bel-7402 [29] = test: Induction of apoptosis in human Bel-7402 cells assessed as late apoptotic cells at 2.5 uM incubated for 24 hrs in presence of U0126 by Annexin V and Dead cell kit assay (reference value: 3.85 %); format: functional
[30] = Biodistribution in tumor of mouse bearing tumor measured after 4 hr by ICG dye based fluorescence imaging; format: ADME, organism-based, Neoplasm; settings: in vivo
Bel-7402 [31] = test: Induction of apoptosis in human Bel-7402 cells assessed as viable cells at 0.313 uM incubated for 24 hrs by Annexin V and dead cell assay kit (reference value: 91.00%); format: functional; settings: read-out: Activity
Bel-7402 [32] = test: Induction of apoptosis in human Bel-7402 cells assessed as viable cells at 2.5 uM incubated for 24 hrs in presence of U0126 by Annexin V and Dead cell kit assay (reference value: 90.82 %); format: functional; settings: read-out: Activity
Bel-7402 [33] = test: Induction of apoptosis in human Bel-7402 cells assessed as early apoptotic cells at 2.5 uM incubated for 24 hrs in presence of U0126 by Annexin V and Dead cell kit assay (reference value: 3.7 %); format: functional
[34] = Toxicity in ICR mouse assessed as change in monocyte level at 100 mg/kg, ip qd (reference value: 3.2 %); format: organism-based; settings: in vivo
Bel-7402 [35] = test: Cytotoxicity against human Bel-7402 cells assessed as LDH release at 2.5 uM incubated for 24 hrs by LDH assay; format: functional, cell-based
[36] = Chronic toxicity in ICR mouse assessed as effect on heart morphology at 100 mg/kg, ip qd measured after 26 days by H and E staining method; format: organism-based; settings: in vivo, 624 h, time 26 day
[37] = Biodistribution in liver of mouse bearing tumor measured after 24 hr by ICG dye based fluorescence imaging; format: ADME, organism-based; settings: in vivo
Bel-7402 [38] = test: Induction of ERK degradation in human Bel-7402 cells at 2.5 uM incubated for 24 hrs in presence of choro-quine by Western blot analysis; format: cell-based

Compound: CC[C@H](C)/C=C(C)/C=C/C1=CC2=C(Cl)C(=O)[C@](C)(O)C(=O)C2=CN1Cc1ccc(OC(F)(F)F)cc1
- Activity (Bel-7402 [1]): 0.6%
- Activity [2]: Non-Toxic
- IC50 (Bel-7402 [3]): 1.15 µM
- Cmax [4]: 5.59 µg/mL
- Activity (Bel-7402 [5]): Dde
- Activity (Bel-7402 [6]): 8.1%
- Activity (Bel-7402 [7]): Active
- Activity [8]: Non-Toxic
- Activity [9]: 16.8 pg
- Activity (Bel-7402 [10]): 1.6%
- Activity [11]: 0.407%
- Activity (Bel-7402 [12]): Dde
- viability at 1.25 µM (Bel-7402 [13]): 88.4%
- Activity (Bel-7402 [14]): Active
- viability at 0.625 µM (Bel-7402 [15]): 91.6%
- Activity [16]: Non-Toxic
- Activity (Bel-7402 [17]): Dde
- Activity (Bel-7402 [18]): 75.55%
- viability at 5 µM (Bel-7402 [19]): 8.2%
- Activity (Bel-7402 [20]): Active
- Activity [21]: 46%
- Activity [22]: Non-Toxic
- Activity [23]: 1.4 10^9/L
- Activity [24]: Non-Toxic
- Activity (Bel-7402 [25]): 8.15%
- Activity [26]: 3.4 10^9/L
- Activity (Bel-7402 [27]): 3.35%
- Activity (Bel-7402 [28]): 11.15%
- Activity (Bel-7402 [29]): 36.9%
- Activity [30]: Active
- viability at 0.313 µM (Bel-7402 [31]): 94.3%
- viability at 2.5 µM (Bel-7402 [32]): 29.2%
- Activity (Bel-7402 [33]): 26.1%
- Activity [34]: 8.1%
- Activity (Bel-7402 [35]): Active
- Activity [36]: Non-Toxic
- Activity [37]: Active
- Activity (Bel-7402 [38]): Active
